ChEMBL document CHEMBL1268944, “The antiplasmodial activity of norcantharidin analogs” (Bioorg Med Chem Lett, 2010)

Assays:
Plasmodium falciparum [1] = assay: Antiplasmodial activity against chloroquine-sensitive Plasmodium falciparum D6 assessed as inhibition of parasite LDH activity after 72 hrs by malstat reagent method; assay type: functional, organism-based; details: D6, 72 h
Plasmodium falciparum [2] = assay: Antiplasmodial activity against chloroquine-resistant Plasmodium falciparum W2 assessed as inhibition of parasite LDH activity […] after 72 hrs by malstat reagent method; assay type: functional, organism-based; details: W2, 72 h
[3] = Inhibition of human PP1
[4] = Inhibition of human PP2A
Homo sapiens [5] = species: Homo sapiens; assay: Inhibition of human PP2A at 100 uM
Homo sapiens [6] = species: Homo sapiens; assay: Inhibition of human PP1 at 100 uM
[7] = Solubility of the compound in PP1 assay medium at 40 mM; assay type: physicochemical; details: 40000 µM
[8] = Solubility of the compound in PP2A assay medium at 40 mM; assay type: physicochemical; details: 40000 µM
[9] = Inhibition of human PP1 expressed in Escherichia coli BL21
[10] = Inhibition of human PP2A expressed in Escherichia coli BL21

Row | SMILES | IC50 (Plasmodium falciparum [1]) [µM] | IC50 (Plasmodium falciparum [2]) [µM] | IC50 [3] [µM] | IC50 [4] [µM] | also measured
1 | CCCCN1C(=O)C2C(C1=O)[C@H]1CC[C@@H]2O1 (some centres undefined) | 8.9 | 12.5 |  |  | 
2 | CC(C)(C)c1cc(NC(=O)C2C(C(=O)O)[C@@H]3CC[C@H]2O3)cc(C(C)(C)C)c1 (some centres undefined) | 59.3 | 176 | 8.2 | 8.2 | 
3 | CSc1ccccc1NC(=O)C1C(C(=O)O)[C@@H]2CC[C@H]1O2 (some centres undefined) | 340 | > 500 |  |  | inhibition (Homo sapiens [5]): 58%; inhibition (Homo sapiens [6]): 76%
4 | C#Cc1cccc(NC(=O)C2C(C(=O)O)[C@@H]3CC[C@H]2O3)c1 (some centres undefined) | 193 | 194 | 20 | 16 | 
5 | O=C(O)C1C(C(=O)Nc2ccc([N+](=O)[O-])cc2)[C@H]2CC[C@@H]1O2 (some centres undefined) | > 500 | 393 | 74 | 23 | 
6 | CCCCCCNC(=O)C1C(C(=O)O)[C@@H]2CC[C@H]1O2 (some centres undefined) | > 500 | 390 | 35 | 13 | 
7 | CCc1ccccc1NC(=O)C1C(C(=O)O)[C@@H]2CC[C@H]1O2 (some centres undefined) | 360 | 400 | 51 | 24 | 
8 | CCN1C(=O)C2C(C1=O)[C@H]1CC[C@@H]2O1 (some centres undefined) | > 500 | > 500 |  |  | 
9 | O=C(O)C1C(C(=O)NCc2ccc(C(F)(F)F)cc2)[C@H]2CC[C@@H]1O2 (some centres undefined) | 248 | 433 | 16 | 20 | 
10 | CC(C)(C)c1ccc(C(C)(C)C)c(NC(=O)C2C(C(=O)O)[C@@H]3CC[C@H]2O3)c1 (some centres undefined) | 40 | 205 |  |  | solubility [7]: Insoluble; solubility [8]: Insoluble
11 | O=C(O)C1C(C(=O)NCCc2ccccc2)[C@H]2CC[C@@H]1O2 (some centres undefined) | 243 | 300 | 33 | 29 | 
12 | O=C(O)C1C(C(=O)Nc2ccc(I)cc2)[C@H]2CC[C@@H]1O2 (some centres undefined) | 230 | 248 | 33 | 14 | 
13 | CCCCCCCCN1C(=O)C2C(C1=O)[C@H]1CC[C@@H]2O1 (some centres undefined) | 225 | 250 |  |  | 
14 | O=C(O)C1C(C(=O)Nc2cccc(CO)c2)[C@H]2CC[C@@H]1O2 (some centres undefined) | 440 | 390 | 15 | 7 | 
15 | O=C(O)C1C(C(=O)NCc2ccc(F)c(F)c2)[C@H]2CC[C@@H]1O2 (some centres undefined) | 473 | > 500 | 26 | 26 | 
16 | NCCCN1C(=O)C2C(C1=O)[C@H]1CC[C@@H]2O1 (some centres undefined) | > 500 | > 500 |  |  | 
17 | CCCCCCN1C(=O)C2C(C1=O)[C@H]1CC[C@@H]2O1 (some centres undefined) | 175 | 90 |  |  | 
18 | O=C(O)C1C(C(=O)Nc2ccccc2CO)[C@H]2CC[C@@H]1O2 (some centres undefined) | 275 | 333 |  |  | inhibition (Homo sapiens [5]): 30%; inhibition (Homo sapiens [6]): 84%
19 | O=C1C2C(C(=O)N1C1CCCCC1)[C@H]1CC[C@@H]2O1 (some centres undefined) | 140 | 55 |  |  | 
20 | CCCN1C(=O)C2C(C1=O)[C@H]1CC[C@@H]2O1 (some centres undefined) | > 500 | > 500 |  |  | 

Row | SMILES | IC50 (Plasmodium falciparum [1]) [µM] | IC50 (Plasmodium falciparum [2]) [µM] | IC50 [3] [µM] | IC50 [4] [µM] | also measured
21 | O=C(O)C1C(C(=O)Nc2ccc(CO)cc2)[C@H]2CC[C@@H]1O2 (some centres undefined) | 160 | 163 | 15 | 7.2 | 
22 | O=C(O)CCCCCNC(=O)C1C(C(=O)O)[C@@H]2CC[C@H]1O2 (some centres undefined) | 260 | > 500 | 14 | 3.5 | 
23 | O=C(O)C1C(C(=O)N2CCSCC2)[C@H]2CC[C@@H]1O2 (some centres undefined) | 250 | 204 | 3.2 | 5.1 | 
24 | CC(C)(C)c1ccccc1NC(=O)C1C(C(=O)O)[C@@H]2CC[C@H]1O2 (some centres undefined) | > 500 | > 500 |  |  | inhibition (Homo sapiens [5]): 16%; inhibition (Homo sapiens [6]): 9%
25 | Cc1cccc(NC(=O)C2C(C(=O)O)[C@@H]3CC[C@H]2O3)c1C (some centres undefined) | 260 | 220 |  |  | inhibition (Homo sapiens [5]): 62%; inhibition (Homo sapiens [6]): 84%
26 | O=C(O)C1C(C(=O)Nc2cccc3ccccc23)[C@H]2CC[C@@H]1O2 (some centres undefined) | 210 | 193 |  |  | inhibition (Homo sapiens [5]): 73%; inhibition (Homo sapiens [6]): 79%
27 | O=C(O)C1C(C(=O)NCCCc2ccccc2)[C@H]2CC[C@@H]1O2 (some centres undefined) | 383 | 230 | 25 | 25 | 
28 | Cc1cccc(C)c1NC(=O)C1C(C(=O)O)[C@@H]2CC[C@H]1O2 (some centres undefined) | 306 | 290 |  |  | inhibition (Homo sapiens [5]): 24%; inhibition (Homo sapiens [6]): 68%
29 | O=C(O)C1C(C(=O)NCCN2CCOCC2)[C@H]2CC[C@@H]1O2 (some centres undefined) | > 500 | > 500 | 30 | 43 | 
30 | CCCCCCCCCCN1C(=O)C2C(C1=O)[C@H]1CC[C@@H]2O1 (some centres undefined) | 375 | 141 |  |  | 
31 | CSc1ccc(NC(=O)C2C(C(=O)O)[C@@H]3CC[C@H]2O3)cc1 (some centres undefined) | > 500 | > 500 | 10 | 14 | 
32 | O=C(O)C1C(C(=O)Nc2ccc(O)cc2)[C@H]2CC[C@@H]1O2 (some centres undefined) | 265 | 333 | 28 | 7.7 | 
33 | COc1ccc(NC(=O)C2C(C(=O)O)[C@@H]3CC[C@H]2O3)cc1 (some centres undefined) | 500 | > 500 | 16 | 16 | 
34 | CCCCCCCCCCCCNC(=O)C1C(C(=O)O)[C@@H]2CC[C@H]1O2 (some centres undefined) | 70 | 106 |  |  | solubility [7]: Insoluble; solubility [8]: Insoluble
35 | O=C(O)C1C(C(=O)Nc2ccccc2)[C@H]2CC[C@@H]1O2 (some centres undefined) | 300 | 363 | 24 | 7.7 | 
36 | CC(C)(CO)N1C(=O)C2C(C1=O)[C@H]1CC[C@@H]2O1 (some centres undefined) | > 500 | > 500 |  |  | 
37 | Nc1ccccc1CN1C(=O)C2C(C1=O)[C@H]1CC[C@@H]2O1 (some centres undefined) | > 500 | > 500 |  |  | 
38 | O=C(O)CCCNC(=O)C1C(C(=O)O)[C@@H]2CC[C@H]1O2 (some centres undefined) | > 500 | > 500 | 15 | 3.3 | 
39 | O=C(O)C1C(C(=O)NCCc2cnc[nH]2)[C@H]2CC[C@@H]1O2 (some centres undefined) | 307 | 267 |  |  | inhibition (Homo sapiens [5]): 26%; inhibition (Homo sapiens [6]): 35%
40 | O=C(O)C1C(C(=O)Nc2cccc(Cl)c2)[C@H]2CC[C@@H]1O2 (some centres undefined) | 250 | 185 | 31 | 14 | 

Row | SMILES | IC50 (Plasmodium falciparum [1]) [µM] | IC50 (Plasmodium falciparum [2]) [µM] | IC50 [3] [µM] | IC50 [4] [µM] | also measured
41 | O=C(O)C1C(C(=O)Nc2cccc(I)c2)[C@H]2CC[C@@H]1O2 (some centres undefined) | 217 | 283 | 44 | 18 | 
42 | CCCCCCOc1ccc(NC(=O)C2C(C(=O)O)[C@@H]3CC[C@H]2O3)cc1 (some centres undefined) | 130 | 70 | 60 | 20 | 
43 | CCC(C)N1C(=O)C2C(C1=O)[C@H]1CC[C@@H]2O1 (some centres undefined) | 225 | 125 |  |  | 
44 | O=C(O)[C@@H]1[C@H](C(=O)O)[C@H]2CC[C@@H]1O2 [ENDOTHALL] |  |  |  |  | IC50 [9]: 4 µM; IC50 [10]: 0.09 µM
45 | CCCNC(=O)C1C(C(=O)O)[C@@H]2CC[C@H]1O2 (some centres undefined) | > 500 | > 500 | 46 | 18 | 
46 | CC(C)(C)c1ccc(NC(=O)C2C(C(=O)O)[C@@H]3CC[C@H]2O3)cc1 (some centres undefined) | 405 | > 500 | 10 | 11 | 
47 | CCCCNC(=O)C1C(C(=O)O)[C@@H]2CC[C@H]1O2 (some centres undefined) | > 500 | > 500 | 70 | 24 | 
48 | COc1ccc(CN2C(=O)C3C(C2=O)[C@H]2CC[C@@H]3O2)cc1 (some centres undefined) | 24 | 25 |  |  | 
49 | COc1ccc(CNC(=O)C2C(C(=O)O)[C@@H]3CC[C@H]2O3)cc1 (some centres undefined) | > 500 | > 500 | 35 | 13 | 
50 | Cc1cc(C)c(NC(=O)C2C(C(=O)O)[C@@H]3CC[C@H]2O3)c(C)c1 (some centres undefined) | 340 | > 500 |  |  | inhibition (Homo sapiens [5]): 23%; inhibition (Homo sapiens [6]): 63%
51 | O=C(O)C1C(C(=O)Nc2ccccc2O)[C@H]2CC[C@@H]1O2 (some centres undefined) | 385 | 380 |  |  | inhibition (Homo sapiens [5]): 9.8%; inhibition (Homo sapiens [6]): 33%
52 | O=C1C2C(C(=O)N1CCN1CCOCC1)[C@H]1CC[C@@H]2O1 (some centres undefined) | > 500 | > 500 |  |  | 
53 | C=Cc1ccc(NC(=O)C2C(C(=O)O)[C@@H]3CC[C@H]2O3)cc1 (some centres undefined) | > 500 | 400 | 23 | 11 | 
54 | C=CCCNC(=O)C1C(C(=O)O)[C@@H]2CC[C@H]1O2 (some centres undefined) | > 500 | > 500 |  |  | solubility [7]: Insoluble; solubility [8]: Insoluble
55 | CC(C)C[C@@H](C(=O)O)N1C(=O)C2C(C1=O)[C@H]1CC[C@@H]2O1 (some centres undefined) | > 500 | > 500 |  |  | 
56 | CC(CO)N1C(=O)C2C(C1=O)[C@H]1CC[C@@H]2O1 (some centres undefined) | > 500 | > 500 |  |  | 
57 | O=C1C2C(C(=O)N1N1CCOCC1)[C@H]1CC[C@@H]2O1 (some centres undefined) | > 500 | > 500 |  |  | 
58 | O=C1C2C(C(=O)N1CCCCCCO)[C@H]1CC[C@@H]2O1 (some centres undefined) | > 500 | > 500 |  |  | 
59 | CCCCCOc1ccc(NC(=O)C2C(C(=O)O)[C@@H]3CC[C@H]2O3)cc1 (some centres undefined) | 110 | 333 | 11 | 15 | 
60 | O=C(O)C1C(C(=O)Nc2ccc3ccccc3c2)[C@H]2CC[C@@H]1O2 (some centres undefined) | 280 | 257 | 14 | 15 | 
